GI50 and TGI data for 32 compounds are collected here from PubChem BioAssay (NCI).

Test systems include BT-549 breast; MDA-N; LXFL 529 NSCLC; DMS 114 small cell lung; XF 498 CNS; DMS 273 small cell lung; HOP-18 NSCLC; KM20L2 colon.
Assay in all cases: NCI-60 cell line screen, 48 h

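Growth conditions: 96-well plates. Treatment: test compound, 48 hours, 5 concentrations. Analysis: linear interpolation between bracketing concentrations; unreached endpoints set to highest concentration. GI50 = concentration required for 50% inhibition of growth. TGI denotes the concentration required for complete inhibition of growth.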

In the case of `CCN(CC)CCNc1ccc(C)c2sc3cc(Cl)ccc3c(=O)c12`, in the experiment with BT-549 breast, the GI50 is 2.36 µM and the TGI came out at 6.95 µM.
For `COc1ccc(C(=O)Nc2ncc(Cc3cccc(Cl)c3)s2)cc1OC`, in the experiment with BT-549 breast, the GI50 was 0.883 µM and the TGI was more than 100 µM.
Taken in the same sequence, the figures for `CC1(C)N=C(N)N=C(N)N1c1ccc(CCCCc2ccccc2)c(Cl)c1` were 0.161 µM and 5.19 µM.
Consider `COc1ccc2sc3cccc(NCCN(C)C)c3c(=O)c2c1`, for which, in the experiment on BT-549 breast, the GI50 is 5.4 µM and the TGI was 18.6 µM.
On to `C=C(C)[C@@H]1CC[C@]2(COCCC#N)CC[C@]3(C)[C@H](CC[C@@H]4[C@@](C)(CCCNCCC#N)[C@H](C(=C)C)CC[C@]43C)[C@@H]12`, for which, in the experiment on BT-549 breast, the GI50 is 24.3 µM and the TGI was more than 50 µM.
Taken in the same sequence, the figures for `CO/C=C/C(=O)c1cc2cnc3c(=N)cc(NC(=O)C(C)C)c([nH]1)c23` were 0.0236 µM and 0.258 µM.
As to `COc1c(O)c(OC)c2oc(-c3ccc(O)c(O)c3)c(OC)c(=O)c2c1O`, the TGI with MDA-N and in the experiment on BT-549 breast was more than 100 µM in each case.
Consider `C=CC(=O)NCCSCCCOC1(C(=O)O)CC(O)C(NC(C)=O)C(C(O)C(O)CO)O1` (configuration not stated), for which the TGI in the experiment with LXFL 529 NSCLC, in the experiment on DMS 114 small cell lung, with XF 498 CNS and with DMS 273 small cell lung was more than 100 µM throughout.
In the case of `Cc1ccc(NC(=O)c2ccc(CN3CCN(C)CC3)cc2)cc1Nc1nccc(-c2cccnc2)n1`, in the experiment on BT-549 breast, the GI50 was 16.6 µM and the TGI came to 34.9 µM.
Taken in the same sequence, the figures for `CCOC(=O)c1ccc(Nc2sc(C(=O)c3ccc(Br)cc3)c(N)c2C#N)cc1` were more than 100 µM and more than 100 µM.
Taken in the same sequence, the figures for `Cc1cc(Nc2ccc(OCc3ccccc3)cc2)nc2cc(O)ccc12` were 5.46 µM and 21 µM.
Taken in the same sequence, the figures for `O=C1c2[nH]cc(CNC3CN4CCC3CC4)c2C(=O)c2c1c(O)c1ccccc1c2O` (configuration not stated) were 21.6 µM and 47.1 µM.
On to `CC(C)(C)N1CCC1CN` (configuration not stated), for which, in the experiment with BT-549 breast, the GI50 is more than 100 µM and the TGI was more than 100 µM.
With `CSC1=Nc2c(c(C)c(-c3ccccc3)n2CCCN2CCCCC2)C2=NC(=O)C[C@H](C)N12`, in the experiment with BT-549 breast, the GI50 is 2.83 µM and the TGI turned out to be 13.7 µM.
Taken in the same sequence, the figures for `O=C(c1ccco1)c1nc2cc(C(F)(F)F)ccc2nc1C(F)(F)F` were more than 100 µM and more than 100 µM.
With `CC[C@@H]1[C@@H](C)O[C@@](O)([C@@H](C)[C@H](O)[C@H](C)[C@H]2OC(=O)/C=C/C=C/[C@H](C)[C@@H]([C@@H](C)[C@@H](O)[C@H](C)[C@@]3(O)C[C@@H](O[C@H]4C[C@@H](O)[C@H](O)C(C)O4)[C@H](CC)[C@@H](C)O3)OC(=O)/C=C/C=C/[C@@H]2C)C[C@H]1O[C@@H]1C[C@@H](O)[C@H](O)C(C)O1` (some centres not stated), in the experiment with BT-549 breast, the GI50 is 0.0569 µM and the TGI is 0.124 µM.
In the case of `CN1CCC(COc2cnc(-c3cccc(Cn4nc(-c5cccc(C#N)c5)ccc4=O)c3)nc2)CC1`, in the experiment with BT-549 breast, the GI50 is 4.66 µM and the TGI came to 15.2 µM.
Taken in the same sequence, the figures for `O=C1/C(=C\c2ccc(F)cc2)CN(C(=O)c2ccccc2)C/C1=C\c1ccc(F)cc1` were 1.81 µM and 3.43 µM.
Taken in the same sequence, the figures for `NS(=O)(=O)OCC1OC(n2cnc3cncnc32)C(O)C1O` (configuration not stated) were 0.0275 µM and 0.0913 µM.
Take `CC(C)N1CC2CN(Cc3ccccc3)CC(C1)C2=O`: the TGI in the experiment with MDA-N and with BT-549 breast was more than 100 µM in each case.
For `COC1C(CO)OC(n2c3ccccc3c3c4c(c5c6ccccc6[nH]c5c32)C(=O)NC4=O)C(O)C1O` (configuration not stated), in the experiment on BT-549 breast, the GI50 is 0.12 µM and the TGI was determined as 1.85 µM.
Taken in the same sequence, the figures for `C[C@]12CCc3nc(Nc4cccc(O)c4)sc3C1=CC[C@@H]1[C@@H]2CC[C@]2(C)/C(=N\NC(N)=S)CC[C@@H]12` were 1.15 µM and 3.97 µM.
As for `CN(C)c1ccc(/C=C/c2ccnc3c(O)cccc23)cc1`, in the experiment on BT-549 breast, the GI50 is 1.01 µM and the TGI is more than 100 µM.
With `COC(=O)[C@@H](C)C[C@H](Cc1cn(C)c2ccccc12)NC(=O)c1csc([C@@H](C[C@H](C(C)C)N(C)C(=O)[C@@H](NC(=O)[C@H]2CCCCN2C)C(C)C)OC(C)=O)n1`, in the experiment with BT-549 breast, the GI50 is less than 0.0113 µM and the TGI worked out at 0.49 µM.
Consider `Nc1c(C(=O)c2ccc(-c3cccnc3)cc2)cnn1-c1ccc(F)cc1`, for which, in the experiment on BT-549 breast, the GI50 was more than 25 µM and the TGI is more than 25 µM.
As to `C[C@]12CC[C@@H]3c4cc(OC(F)F)c(O)cc4CC[C@H]3[C@@H]1CC[C@@H]2OS(N)(=O)=O`, in the experiment with BT-549 breast, the GI50 is 2.8 µM and the TGI is 45.3 µM.
On to `C=C(C)C1CC/C(C)=C/CCC2(C)OC2CC/C(CO)=C\C1O` (configuration not stated), for which, in the experiment on MDA-N, the TGI is more than 100 µM.
Consider `O=C1/C(=N\O)c2ccccc2S1(=O)=O`, for which the TGI in the experiment on HOP-18 NSCLC, with LXFL 529 NSCLC, in the experiment with KM20L2 colon, in the experiment on DMS 114 small cell lung and in the experiment on DMS 273 small cell lung was more than 100 µM each time.
For the compound `C=C=C(C(=O)OC)S(=O)c1ccccc1[N+](=O)[O-]` (configuration not stated), the TGI in the experiment on HOP-18 NSCLC, with LXFL 529 NSCLC, with KM20L2 colon, in the experiment with DMS 114 small cell lung, with XF 498 CNS and with DMS 273 small cell lung was more than 100 µM in each case.
On to `O=C(O)/C=C/C(=O)N1Cc2cc3ccccc3nc2C1`, for which the TGI in the experiment on MDA-N and in the experiment with BT-549 breast was more than 100 µM in each case.
Turning to `O=S(=O)([O-])c1ccc(N=Cc2ccccc2[O-])cc1.O=S(=O)([O-])c1ccc(N=Cc2ccccc2[O-])cc1.[O]=[U+2]=[O]`, the GI50 was more than 100 µM in the experiment on HOP-18 NSCLC; more than 100 µM in the experiment with LXFL 529 NSCLC; more than 100 µM with KM20L2 colon; 33.1 µM in the experiment with DMS 114 small cell lung; more than 100 µM in the experiment on XF 498 CNS; more than 100 µM in the experiment on DMS 273 small cell lung. For the same compound, the TGI with HOP-18 NSCLC, in the experiment on LXFL 529 NSCLC, in the experiment on KM20L2 colon, in the experiment with DMS 114 small cell lung, with XF 498 CNS and in the experiment on DMS 273 small cell lung was more than 100 µM each time.
Consider `C=C1CC2CCCC12C=O` (configuration not stated), for which the TGI with MDA-N and in the experiment with BT-549 breast was more than 10 µM each time.
